Experimental data reported in patent US7109192B2, “Substituted imidazo-pyridinones and imidazo-pyridazinones, the preparation thereof and their use as pharmaceutical compositions” (Boehringer Ingelheim Pharma GmbH & Co KG, priority 2002, dated 2006).
Where a name gives a salt, the structure may show the parent alone.

test system: rats; test: Tolerability in rats after oral administration; type: in vivo, rat; conditions: 10 mg/kg

SMILES	changes in the animals' behaviour
CC#CCn1c(N2CCCC(N)C2)nc2cnn(Cc3cccc4ccccc34)c(=O)c21 (stereo not shown) [Example 2, 2-(3-amino-piperidin-1-yl)-3-(but-2-ynyl)-5-(naphthalen-1-ylmethyl)-3,5-dihydro-imidazo[4,5-d]pyridazin-4-one]	no changes in the animals' behaviour could be detected

target: T1, DPP-IV (Homo sapiens, UniProt P27487); test: DPP-IV inhibition assay with Caco-2 cell extract, AFC substrate, fluorescence; type: biochemical; conditions: extract of human colon carcinoma cell line Caco-2 as DPP IV source; 100 μM AFC substrate; 60 minutes, ambient temperature
T1 construct: an extract of human colon carcinoma cell line Caco-2 is used as the DPP IV source; endogenous in cells; host or cells: Caco-2 (human colon carcinoma), differentiated to induce DPP-IV expression; Nonidet-P40 solubilised extract
T1 sequence (P27487 whole entry): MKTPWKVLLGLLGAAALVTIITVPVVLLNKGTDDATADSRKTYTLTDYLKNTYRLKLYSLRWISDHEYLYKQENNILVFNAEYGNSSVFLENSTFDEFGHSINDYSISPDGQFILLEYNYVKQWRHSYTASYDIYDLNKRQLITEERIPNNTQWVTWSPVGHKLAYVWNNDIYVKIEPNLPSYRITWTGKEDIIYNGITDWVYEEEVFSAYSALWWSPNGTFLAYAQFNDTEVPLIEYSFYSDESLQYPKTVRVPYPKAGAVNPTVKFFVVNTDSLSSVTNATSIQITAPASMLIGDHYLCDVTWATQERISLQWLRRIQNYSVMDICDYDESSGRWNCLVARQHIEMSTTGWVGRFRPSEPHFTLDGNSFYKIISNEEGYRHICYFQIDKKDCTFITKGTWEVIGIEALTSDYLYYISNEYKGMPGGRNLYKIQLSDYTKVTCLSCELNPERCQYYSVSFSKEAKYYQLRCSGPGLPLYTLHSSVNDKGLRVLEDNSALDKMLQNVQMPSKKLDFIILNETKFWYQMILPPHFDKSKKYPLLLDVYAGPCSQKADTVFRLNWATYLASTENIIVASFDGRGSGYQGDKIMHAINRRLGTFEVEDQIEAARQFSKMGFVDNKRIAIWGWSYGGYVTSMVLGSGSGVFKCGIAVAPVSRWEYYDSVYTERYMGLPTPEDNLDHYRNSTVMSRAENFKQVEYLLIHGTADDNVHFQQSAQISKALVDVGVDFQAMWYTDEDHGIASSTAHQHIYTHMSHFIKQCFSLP
Method: The cell extract was obtained from cells solubilised in a buffer (10 mM Tris HCl, 0.15 M NaCl, 0.04 t.i.u. aprotinin, 0.5% Nonidet-P40, pH 8.0) by centrifuging at 35,000 g for 30 minutes at 4° C. (to remove cell debris).
The DPP-IV assay was carried out as follows:
50 μl substrate solution (AFC; AFC is amido-4-trifluoromethylcoumarin), final concentration 100 μM, were placed in black microtitre plates. 20 μl of assay buffer (final concentrations 50 mM Tris HCl pH 7.8, 50 mM NaCl, 1% DMSO) was pipetted in. The reaction was started by adding 30 μl of solubilised Caco-2 protein (final concentration 0.14 μg of protein per well). The test substances to be investigated were typically added prediluted in 20 μl, and the volume of assay buffer was then reduced accordingly. The reaction was carried out at ambient temperature, incubating for 60 minutes. […] Blank readings (corresponding to 0% activity) were obtained in mixtures without any Caco-2 protein (volume replaced by assay buffer), control values (corresponding to 100% activity) were obtained in mixtures with no substance added.

SMILES	IC50 [nM]
CC#CCn1c(N2CCC[C@@H](N)C2)nc2cnn(Cc3ccc(F)c4ccccc34)c(=O)c21 [Example 191, 2-((R)-3-amino-piperidin-1-yl)-3-(but-2-ynyl)-5-(4-fluoronaphthalen-1-ylmethyl)-3,5-dihydro-imidazo[4,5-d]pyridazin-4-one hydrochloride]	14
CC#CCn1c(N2CCC[C@@H](N)C2)nc2cnn(Cc3nc4cc(C(F)(F)F)ccc4s3)c(=O)c21 [Example 195, 2-((R)-3-amino-piperidin-1-yl)-3-(but-2-ynyl)-5-(5-trifluoromethylbenzothiazol-2-ylmethyl)-3,5-dihydro-imidazo[4,5-d]pyridazin-4-one hydrochloride]	17

Now from value to compound:

IC50 [nM]	SMILES
1.2	CC#CCn1c(N2CCCC(N)C2)nc2cnn(Cc3ccc4nccnc4c3)c(=O)c21 (stereo not shown) [Example 182, 2-(3-amino-piperidin-1-yl)-3-(but-2-ynyl)-5-(quinoxalin-6-ylmethyl)-3,5-dihydro-imidazo[4,5-d]pyridazin-4-one]
9.8	CC#CCn1c(N2CCC[C@@H](N)C2)nc2cnn(Cc3ccc4nonc4c3)c(=O)c21 [Example 202, 2-((R)-3-amino-piperidin-1-yl)-3-(but-2-ynyl)-5-(benzo[1,2,5]oxadiazol-5-ylmethyl)-3,5-dihydro-imidazo[4,5-d]pyridazin-4-one]
5.4	Cc1cc2ccccc2c(Cn2ncc3nc(N4CCC[C@@H](N)C4)n(Cc4ccccc4Cl)c3c2=O)n1 [Example 205, 2-((R)-3-amino-piperidin-1-yl)-3-(2-chlorobenzyl)-5-(3-methyl-isoquinolin-1-ylmethyl)-3,5-dihydro-imidazo[4,5-d]pyridazin-4-one]
10	CC#CCn1c(N2CCC[C@@H](N)C2)nc2cnn(Cc3cn(C)c(=O)c4ccccc34)c(=O)c21 [Example 217, 2-((R)-3-amino-piperidin-1-yl)-3-(but-2-ynyl)-5-(2-methyl-2H-isoquinolin-1-on-4-ylmethyl)-3,5-dihydro-imidazo[4,5-d]pyridazin-4-one]
